According to patent EP0004894A1, “Fertilizer for providing plants with iron” (BAYER AG, priority 1978, dated 1979):

How the values were obtained:
[1] = Water solubility of the preparation; type: physicochemical
[2] = system: Chrysanthemum indicum (Sorte: Yellow Delaware); test: Iron deficiency control / leaf uptake test (Eisenmangel-Bekämpfung / Blattaufnehmbarkeits-Test); type: in vivo; conditions: for Intenistät der Grünfärbung junger Blätter / Ø Anzahl neu gebildeter Blätter: sprayed twice on fully chlorotic plants
From the text: Eisenmangel-Bekämpfung / Blattaufnehmbarkeits-Test
In einem Kultursubstrat der oben angegebenen Zusammensetzung werden Versuchspflanzen angezogen, wobei die Dünung und die Bewässerung dadurch erfolgt, daß man zweimal wöchentlich eine mineralische Eisenmangel-Nährlösung nach Hoagland und Arnon (Circular 347, College of Agriculture, University of California, Berkeley 1950) hinzugibt. Die so angezogenen völlig chlorotischen Versuchspflanzen werden in Fünfblattstadium mit der Wirkstoffzubereitung tropfnaß besprüht, wobei durch Abdecken dafür gesorgt wird, daß die Wirkstoffzubereitung nicht in das Kultursubstrat gelangt. Nach 2 Tagen wird erneut in gleicher Weise mit der Wirkstoffzubereitung besprüht. Die Auswertung erfolgt dann, wenn bei den mit einem wasserlöslichen, handelsüblichen Eisen-Dünger in optimaler Menge behandelten Pflanzen durchschnittlich 3 Blätter neu gebildet sind. Es wird jeweils die durchschnittliche Anzahl neu gebildeteter Blätter bei allen Versuchspflanzen ermittelt. Ferner wird die Intensität der Grünfärbung von neu gebildeten Blättern bonitiert und durch Kennzahlen ausgedrückt.

[3] = 0,1 % preparation in spray liquid
[4] = 0,02 % preparation in spray liquid
[5] = 0,5 % preparation in spray liquid

| Structure (SMILES) | Wasserlöslichkeit des Präparates [1] | Intenistät der Grünfärbung junger Blätter [2, 3] | Ø Anzahl neu gebildeter Blätter [2, 3] | Intenistät der Grünfärbung junger Blätter [2, 4] | Ø Anzahl neu gebildeter Blätter [2, 4] | Intenistät der Grünfärbung junger Blätter [2, 5] | Ø Anzahl neu gebildeter Blätter [2, 5] | Eisenmangel ([2]; fully chlorotic Chrysanthemum indicum, Sorte Yellow Delaware) |
| --- | --- | --- | --- | --- | --- | --- | --- | --- |
| CC(CC(=O)[c-]1cccc1)CC(C)(C)C.[Fe+2].c1cc[cH-]c1 (stereo not drawn) [3,5,5-Trimethylhexanoyl-ferrocen] | gering | 2 | 5 | 3 (25 %-ig chlorotisch) | 4 | 1 (0 %-ig chlorotisch (dunkelgrün)) | 7 | stark verringern oder sogar völlig beheben |
| CCC(=O)c1cc[cH-]c1.[Fe+2].c1cc[cH-]c1 [Propionylferrocen, reference compound] | gering | 3 (25 %-ig chlorotisch) | 4 | 8 | 3 | 2 | 5 | – |
